These results are taken from publication PMC9500072, “Topical application of an irreversible small molecule inhibitor of lysyl oxidases ameliorates skin scarring and fibrosis” (Nature Communications, 2022).

Data set [1] deals with T1, Human Recombinant SSAO (Homo sapiens, UniProt Q16853).
T1 sequence (Q16853 1-763): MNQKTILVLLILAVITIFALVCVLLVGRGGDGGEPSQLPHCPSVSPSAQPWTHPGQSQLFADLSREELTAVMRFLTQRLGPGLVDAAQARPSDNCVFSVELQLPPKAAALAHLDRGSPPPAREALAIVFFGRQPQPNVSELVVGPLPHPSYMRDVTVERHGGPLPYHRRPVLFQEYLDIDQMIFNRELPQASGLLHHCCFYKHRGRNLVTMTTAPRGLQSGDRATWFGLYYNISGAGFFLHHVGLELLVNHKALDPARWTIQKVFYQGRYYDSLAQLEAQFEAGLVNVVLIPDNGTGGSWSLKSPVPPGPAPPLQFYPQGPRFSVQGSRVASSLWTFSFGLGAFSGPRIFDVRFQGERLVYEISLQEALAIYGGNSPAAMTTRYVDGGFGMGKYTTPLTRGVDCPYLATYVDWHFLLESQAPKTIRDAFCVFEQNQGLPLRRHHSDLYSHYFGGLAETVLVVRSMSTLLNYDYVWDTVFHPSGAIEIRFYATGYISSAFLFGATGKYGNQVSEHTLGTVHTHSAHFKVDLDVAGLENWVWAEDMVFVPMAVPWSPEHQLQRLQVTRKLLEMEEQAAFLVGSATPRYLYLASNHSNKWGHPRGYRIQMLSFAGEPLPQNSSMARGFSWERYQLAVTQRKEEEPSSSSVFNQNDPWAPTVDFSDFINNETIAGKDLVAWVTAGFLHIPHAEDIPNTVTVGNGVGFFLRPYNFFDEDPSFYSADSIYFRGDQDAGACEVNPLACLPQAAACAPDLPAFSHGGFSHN
The experiment in a line: Compound oxidation assay (substrate propensity) by SSAO. Format: biochemical. Particulars: single concentration 30 µM. The protocol:
(§1) For compound oxidation assays, the amount of hydrogen peroxide generated at a single concentration (30 µM) of compound relative to DMSO was measured.
Data are expressed as mean ± SEM. Subsequent statistical analysis was performed with unpaired two-sided Student’s t tests. *p < 0.05, **p < 0.01, ***p < 0.001and ****p < 0.0001. Source data are provided as a Source Data file.
This assay determines the substrate propensity of a compound relative to background (dimethyl sulfoxide only). Compound oxidation by rhSSAO was measured by fluorometric assay. Briefly, rhSSAO was incubated for 2 h at 37 °C in HEPES buffer before the addition of an equal volume of Amplex Red ([…]), horseradish peroxidase (4 U/ml), and test compound in the same buffer. The kinetics of the formation of resorufin was measured immediately using Optima reader (BMG Labtech GmbH, Ortenburg, Germany), at 37 °C.

The subject of data set [2] is chicken lysyl oxidase. Details: method as in earlier work. Conditions: cited from earlier work.
Data set [3] deals with T2, Human recombinant LOXL2 (Homo sapiens, UniProt Q9Y4K0).
T2 construct: purchased R&D Systems
T2 sequence (Q9Y4K0 26-774): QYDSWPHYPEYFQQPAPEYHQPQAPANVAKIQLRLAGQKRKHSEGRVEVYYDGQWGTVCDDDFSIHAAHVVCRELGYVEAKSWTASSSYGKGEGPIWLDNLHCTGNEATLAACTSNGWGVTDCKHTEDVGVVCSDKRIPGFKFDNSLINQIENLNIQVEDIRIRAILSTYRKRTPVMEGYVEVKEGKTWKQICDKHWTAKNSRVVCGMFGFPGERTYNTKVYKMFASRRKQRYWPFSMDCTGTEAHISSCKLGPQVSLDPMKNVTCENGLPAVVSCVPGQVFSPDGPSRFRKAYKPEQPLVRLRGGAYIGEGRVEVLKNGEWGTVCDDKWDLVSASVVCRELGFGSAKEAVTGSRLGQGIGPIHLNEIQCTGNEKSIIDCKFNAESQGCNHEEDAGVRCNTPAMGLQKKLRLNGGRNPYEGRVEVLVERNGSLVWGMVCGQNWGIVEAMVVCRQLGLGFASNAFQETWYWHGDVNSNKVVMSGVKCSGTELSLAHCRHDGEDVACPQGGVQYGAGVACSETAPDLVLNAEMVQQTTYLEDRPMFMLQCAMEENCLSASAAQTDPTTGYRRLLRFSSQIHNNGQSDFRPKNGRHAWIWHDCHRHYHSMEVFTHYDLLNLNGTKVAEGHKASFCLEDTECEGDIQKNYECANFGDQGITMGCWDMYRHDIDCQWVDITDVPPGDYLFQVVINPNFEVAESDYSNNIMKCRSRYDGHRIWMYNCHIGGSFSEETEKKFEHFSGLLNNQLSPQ
The experiment in a line: Amplex Red oxidation assay, LOXL2 inhibition. Format: biochemical. Particulars: 30 min pre-incubation; read-out: LOXL2 IC50. The method, then:
as §1
(§2) The measurement of the enzymatic activity of all lysyl oxidase family members was based on the detection of hydrogen peroxide with an Amplex-Red oxidation assay, as previously described; miniaturized in 384 well formats, with the appropriate combination of substrate and assay buffer for each individual enzyme. After a 30 min pre-incubation of the enzyme at 37 °C with the test compound (or with different incubation times for the time-dependency assay), one volume of reaction mixture containing 120 μM Amplex Red (AR) (Life Technologies), 1.5 U/mL horseradish peroxidase (HRP) (Sigma-Aldrich) and the specific substrate was added to each sample. The relative fluorescence units (RFU) were then measured every 2.5 min for 30 min at 37 °C, excitation 565 nm and emission 590, on a BMG Clariostar Microplate Reader. All the substrates were used at concentrations corresponding to their Km towards the corresponding enzyme, or with a range of different concentrations for the substrate competition experiments.
(§3) Lysyl oxidases assay buffer contained 1.2 M urea, 50 mM sodium borate buffer, pH 8.2 and 100 µM β-aminoproprionitrile (BAPN, Sigma-Aldrich) was used for low control.
Recombinant human LOXL1 was expressed and purified from cDNA (GeneArt) and 10 mM putrescine was used as substrate. Recombinant human and mouse LOXL2 (R&D Systems) were challenged with 5 mM putrescine (Sigma-Aldrich) as the substrate. Rat and dog recombinant LOXL2 were amplified and purified in house from HEK-293 clones kindly provided by Dr. Fernando Rodríguez Pascual, Madrid University, and used in the same conditions as for the human form. 2 mM putrescine was used as the substrate for recombinant human LOXL3 (R&D Systems) and LOXL4 (Dr. Fernando Rodríguez Pascual, university of Madrid, Spain) assays.

Data set [4] addresses T3, Bovine (aorta) LOX (Bos taurus, UniProt P33072).
T3 construct: Bovine (aorta) LOX used for analog screening due to ready availability; from tissue; host or cells: bovine aorta
T3 sequence (P33072 170-418): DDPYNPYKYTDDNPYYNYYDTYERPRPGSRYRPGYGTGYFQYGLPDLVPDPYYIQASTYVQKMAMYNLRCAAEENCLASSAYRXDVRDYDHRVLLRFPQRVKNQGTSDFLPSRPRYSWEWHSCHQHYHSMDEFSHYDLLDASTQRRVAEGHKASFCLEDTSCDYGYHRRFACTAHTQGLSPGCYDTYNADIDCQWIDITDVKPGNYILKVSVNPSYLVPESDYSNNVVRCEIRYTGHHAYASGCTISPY
The experiment in a line: Amplex Red oxidation assay, LOX inhibition. Format: biochemical. Conditions: 30 min pre-incubation. The method, then: as §2, §3

Data set [5] in a line: Franz Cell skin permeability assay. The format is in vitro ADME, human. Conditions: average of 3 samples.

Where “and” joins values, the source holds several entries; their conditions need not be identical. Equal values may be shown once. Some results are limits rather than exact numbers.

In the case of `NC/C(=C/F)CCc1ccc(F)cc1` [Mofegiline, mofegiline, reference compound], the “Oxidation by SSAO (hydrogen peroxide generated relative to DMSO)” value in data set [1] is given as 1.0. Further, in data set [2], the “inhibition of chicken lysyl oxidase activity” value is “modest inhibitor”. The IC50 (usually the point on the concentration scale where inhibition reaches its midpoint) in data set [3] was more than 10 µM; in data set [4] it was 56 µM.
With `NC/C=C(\F)COc1ccccc1` [compound 4], the IC50 is 1.1 µM in data set [3]; 8.4 µM and 8 µM in data set [4].
Regarding `NC/C=C(\F)C(F)(F)S(=O)(=O)c1ccccc1` [Samples 6302], the “Avg. 6302 concentration” value is recorded as 0 µM in data set [5] (0hr); 0.017 µM in data set [5] (2hr); 0.042 µM in data set [5] (4hr); 0.166 µM in data set [5] (6hr); 1.742 µM in data set [5] (20hr). The Avg.6302 concentration in data set [5] (0hr) came out at 0.000 ng/mL; in data set [5] (2hr), 4.559 ng/mL; in data set [5] (4hr), 11.109 ng/mL; in data set [5] (6hr), 44.135 ng/mL; in data set [5] (20hr), 462.127 ng/mL.
Take `NC/C=C(\F)CN1CCc2ccccc21` [compound 5]: the “Oxidation by SSAO (hydrogen peroxide generated relative to DMSO)” value in data set [1] turned out to be 2.6. Besides, the results for the IC50 in data set [3] and in data set [4] were 0.9 µM and 10.8 µM, respectively.
`NC/C=C(\F)CSc1ccccc1` [compound 7]: in data set [1], the “Oxidation by SSAO (hydrogen peroxide generated relative to DMSO)” value worked out at 68. Also, the IC50 stood at 1.1 µM in data set [3] and 8.5 µM in data set [4].
Regarding `NC/C=C(/F)COc1ccccc1` [compound 3], in data set [1], the “Oxidation by SSAO (hydrogen peroxide generated relative to DMSO)” value came out at 12.0. Further, the values for the IC50 in data set [3] and in data set [4] were 2.9 µM and 13.5 µM, respectively.
The like results for `NCC(=CF)COc1ccccc1` [compound 1] were, in that order, 1.1, 9.5 µM and more than 30 µM.
The like results for `NC/C(=C\F)COc1ccccc1` [compound 2] were, in that order, 1.1, 8.7 µM and more than 30 µM.
The like results for `NC/C=C(\F)CNc1ccccc1` [compound 6] were, in that order, 5.5, 3.4 µM and 13.6 µM.
